Data from PubChem BioAssay AID1963840 (Molecular Pharmacology Branch, DTP, NCI, 2024).

System: 695427-040-R-J1-PDC complex spheroid viability
Test: Anticancer human tumor 695427-040-R-J1-PDC patient-derived colon adenocarcinoma cell line growth inhibition [POLQ]
Settings: for IC50: curve of first compound; for viability, T/C: stronger effect = lower value
Outline: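 Patient-derived tumour cells were co-cultured with HUVEC and mesenchymal stem cells as multicellular spheroids at 37 °C. They were treated with POLQ inhibitors (novobiocin, ART-558, RP6685) alone or combined with other agents. Top concentrations were at or near clinical Cmax (otherwise 10 microM; SN-38 at 1 microM), decreasing in half-log steps.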

[1] = second compound 0.0316 µM, first compound 0.0316 µM
[2] = second compound 0.0316 µM, first compound 0.1 µM
[3] = second compound 0.0316 µM, first compound 0.316 µM
[4] = second compound 0.0316 µM, first compound 1 µM
[5] = second compound 0.0316 µM, first compound 3.16 µM
[6] = second compound 0.0316 µM, first compound 10 µM
[7] = second compound 0.1 µM, first compound 0.0316 µM
[8] = second compound 0.1 µM, first compound 0.1 µM
[9] = second compound 0.1 µM, first compound 0.316 µM
[10] = second compound 0.1 µM, first compound 1 µM
[11] = second compound 0.1 µM, first compound 3.16 µM
[12] = second compound 0.1 µM, first compound 10 µM
[13] = second compound 0.316 µM, first compound 0.0316 µM
[14] = second compound 0.316 µM, first compound 0.1 µM
[15] = second compound 0.316 µM, first compound 0.316 µM
[16] = second compound 0.316 µM, first compound 1 µM
[17] = second compound 0.316 µM, first compound 3.16 µM
[18] = second compound 0.316 µM, first compound 10 µM
[19] = second compound 1 µM, first compound 0.0316 µM
[20] = second compound 1 µM, first compound 0.1 µM
[21] = second compound 1 µM, first compound 0.316 µM
[22] = second compound 1 µM, first compound 1 µM
[23] = second compound 1 µM, first compound 3.16 µM
[24] = second compound 1 µM, first compound 10 µM
[25] = second compound 3.16 µM, first compound 0.0316 µM
[26] = second compound 3.16 µM, first compound 0.1 µM
[27] = second compound 3.16 µM, first compound 0.316 µM
[28] = second compound 3.16 µM, first compound 1 µM
[29] = second compound 3.16 µM, first compound 3.16 µM
[30] = second compound 3.16 µM, first compound 10 µM
[31] = second compound 10 µM, first compound 0.0316 µM
[32] = second compound 10 µM, first compound 0.1 µM
[33] = second compound 10 µM, first compound 0.316 µM
[34] = second compound 10 µM, first compound 1 µM
[35] = second compound 10 µM, first compound 3.16 µM
[36] = second compound 10 µM, first compound 10 µM
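Also: spheroids exposed to compounds for seven days.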
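For viability, T/C in this document: 100% = DMSO vehicle control viability.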

In the case of Nc1ccn(C2OC(CO)C(O)C2(F)F)c(=O)n1 (stereo unspecified) + Cc1cccc(N(C)C(=O)C2C(O)CCN2c2nc(C)cc(C(F)(F)F)c2C#N)c1, the IC50 (second compound 0.0316 µM) is reported as greater than 10 µM, the IC50 (second compound 0.1 µM) is reported as greater than 10 µM and the IC50 (second compound 0.316 µM) is reported as greater than 10 µM. The IC50 (second compound 1 µM) was greater than 10 µM, the IC50 (second compound 3.16 µM) was greater than 10 µM and the IC50 (second compound 10 µM) was greater than 10 µM. The viability, T/C [1] was 83%, the viability, T/C [2] was 79.4% and the viability, T/C [3] was 76.4%. For the same molecule, the viability, T/C [4] was 72.6%, the viability, T/C [5] was 68% and the viability, T/C [6] was 52.4%. The viability, T/C [7] was 93.8%, the viability, T/C [8] was 87.9% and the viability, T/C [9] was 77.4%. The viability, T/C [10] was 70.8%, the viability, T/C [11] was 63.5% and the viability, T/C [12] was 54.2%. The viability, T/C [13] was 103%, the viability, T/C [14] was 87.8% and the viability, T/C [15] was 71.2%. The viability, T/C [16] was 72.8%, the viability, T/C [17] was 66.3% and the viability, T/C [18] was 55.8%. For the same molecule, the viability, T/C [19] was 90.9%, the viability, T/C [20] was 82.7% and the viability, T/C [21] was 71%. For the same molecule, the viability, T/C [22] was 70.8%, the viability, T/C [23] was 66.5% and the viability, T/C [24] was 55.1%. It also gave a viability, T/C [25] of 91.8%, a viability, T/C [26] of 80.8% and a viability, T/C [27] of 75.5%. The viability, T/C [28] was 68.3%, the viability, T/C [29] was 70.2% and the viability, T/C [30] was 57.6%. The viability, T/C [31] was 84.9%, the viability, T/C [32] was 86.4% and the viability, T/C [33] was 75.6%. It also gave a viability, T/C [34] of 72.5%, a viability, T/C [35] of 69.5% and a viability, T/C [36] of 58.5%.

With COc1cc(C2c3cc4c(cc3C(OC3OC5COC(C)OC5C(O)C3O)C3COC(=O)C23)OCO4)cc(OC)c1O (stereo unspecified) + Cc1cccc(N(C)C(=O)C2C(O)CCN2c2nc(C)cc(C(F)(F)F)c2C#N)c1 the IC50 (second compound 0.0316 µM) was greater than 10 µM, the IC50 (second compound 0.1 µM) was greater than 10 µM and the IC50 (second compound 0.316 µM) was greater than 10 µM. For the same molecule, the IC50 (second compound 1 µM) was greater than 10 µM, the IC50 (second compound 3.16 µM) was greater than 10 µM and the IC50 (second compound 10 µM) was greater than 10 µM. The viability, T/C [1] was 104%, the viability, T/C [2] was 89.7% and the viability, T/C [3] was 107%. It also gave a viability, T/C [4] of 108%, a viability, T/C [5] of 92.3% and a viability, T/C [6] of 81.3%. For the same molecule, the viability, T/C [7] was 96.4%, the viability, T/C [8] was 92.6% and the viability, T/C [9] was 102%. For the same molecule, the viability, T/C [10] was 93.4%, the viability, T/C [11] was 96.1% and the viability, T/C [12] was 84.7%. For the same molecule, the viability, T/C [13] was 95.7%, the viability, T/C [14] was 89.8% and the viability, T/C [15] was 102%. For the same molecule, the viability, T/C [16] was 89.8%, the viability, T/C [17] was 93.2% and the viability, T/C [18] was 81.9%. The viability, T/C [19] was 96.2%, the viability, T/C [20] was 98.7% and the viability, T/C [21] was 89.9%. The viability, T/C [22] was 87.9%, the viability, T/C [23] was 91.9% and the viability, T/C [24] was 77.1%. For the same molecule, the viability, T/C [25] was 92.8%, the viability, T/C [26] was 102% and the viability, T/C [27] was 93.4%. The viability, T/C [28] was 91.5%, the viability, T/C [29] was 89.6% and the viability, T/C [30] was 80.8%. It also gave a viability, T/C [31] of 98%, a viability, T/C [32] of 80.5% and a viability, T/C [33] of 90%. For the same molecule, the viability, T/C [34] was 86.8%, the viability, T/C [35] was 84.3% and the viability, T/C [36] was 71.1%.

CCc1cc2c(N3CCc4c(cc(Cn5ccnc5)cc4-c4cn(C)nc4C(F)(F)F)C3=O)cc(C)nc2c(OC)n1 + Cc1cccc(N(C)C(=O)C2C(O)CCN2c2nc(C)cc(C(F)(F)F)c2C#N)c1 gave an IC50 (second compound 0.0316 µM) greater than 10 µM, an IC50 (second compound 0.1 µM) greater than 10 µM and an IC50 (second compound 0.316 µM) greater than 10 µM. For the same molecule, the IC50 (second compound 1 µM) was greater than 10 µM, the IC50 (second compound 3.16 µM) was greater than 10 µM and the IC50 (second compound 10 µM) was greater than 10 µM. For the same molecule, the viability, T/C [1] was 102%, the viability, T/C [2] was 99.6% and the viability, T/C [3] was 104%. It also gave a viability, T/C [4] of 108%, a viability, T/C [5] of 108% and a viability, T/C [6] of 98.3%. The viability, T/C [7] was 110%, the viability, T/C [8] was 100% and the viability, T/C [9] was 102%. It also gave a viability, T/C [10] of 107%, a viability, T/C [11] of 103% and a viability, T/C [12] of 103%. It also gave a viability, T/C [13] of 108%, a viability, T/C [14] of 105% and a viability, T/C [15] of 93.2%. The viability, T/C [16] was 105%, the viability, T/C [17] was 110% and the viability, T/C [18] was 95.7%. It also gave a viability, T/C [19] of 117%, a viability, T/C [20] of 95.6% and a viability, T/C [21] of 88.3%. The viability, T/C [22] was 95.4%, the viability, T/C [23] was 108% and the viability, T/C [24] was 85.2%. It also gave a viability, T/C [25] of 99.8%, a viability, T/C [26] of 92.2% and a viability, T/C [27] of 91.8%. It also gave a viability, T/C [28] of 106%, a viability, T/C [29] of 97.5% and a viability, T/C [30] of 108%. For the same molecule, the viability, T/C [31] was 102%, the viability, T/C [32] was 98.7% and the viability, T/C [33] was 87.8%. For the same molecule, the viability, T/C [34] was 95.4%, the viability, T/C [35] was 93.9% and the viability, T/C [36] was 89.7%.
